Measurements published in ChEMBL document CHEMBL3885881, “DrugMatrix”.

Organism: Rattus norvegicus
Assay: DrugMatrix - Regimen: Daily Repeat
Type: toxicity, organism-based, Sprague-Dawley
Parameters: regimen Daily Repeat, gender Male, age 6-8 weeks
Details: in vivo, iv, […], vehicle 100 % SALINE; for ALANINE AMINOTRANSFERASE / ALBUMIN / ALKALINE PHOSPHATASE / ASPARTATE AMINOTRANSFERASE / BLOOD UREA NITROGEN / CARBON DIOXIDE / CHLORIDE / CHOLESTEROL / CREATINE PHOSPHOKINASE / CREATININE / GLUCOSE / LACTATE DEHYDROGENASE / LIPASE / PHOSPHORUS / POTASSIUM / SODIUM / TOTAL BILIRUBIN / TOTAL PROTEIN / URIC ACID: tissue Plasma; for ABSOLUTE BASOPHIL / ABSOLUTE EOSINOPHIL / ABSOLUTE LYMPHOCYTE / ABSOLUTE MONOCYTE / ABSOLUTE SEGMENTED NEUTROPHIL / BASOPHIL / EOSINOPHIL / ERYTHROCYTE COUNT / HEMATOCRIT / HEMOGLOBIN / LEUKOCYTE COUNT / LYMPHOCYTE / MEAN CORPUSCULAR HEMOGLOBIN / MEAN CORPUSCULAR HEMOGLOBIN CONCENTRATION / MEAN CORPUSCULAR VOLUME / MONOCYTE / NEUTROPHIL / NUCLEATED RED BLOOD CELLS / PLATELET COUNT: tissue Blood
[1] = 72 h, dose 0.0033 mg/Kg, dose level Low, time 3 day
[2] = 72 h, dose 0.033 mg/Kg, dose level High, time 3 day
[3] = 120 h, dose 0.0033 mg/Kg, dose level Low, time 5 day
[4] = 120 h, dose 0.033 mg/Kg, dose level High, time 5 day

For `COc1cc2c3cc1Oc1cc(ccc1O)C[C@@H]1c4c(cc(OC)c(O)c4Oc4ccc(cc4)C[C@@H]3N(C)CC2)CC[N+]1(C)C.[Cl-]`, the “ALANINE AMINOTRANSFERASE” value [1] was 58 u/L, the ALBUMIN [1] was 4.23 G/DL and the “ALKALINE PHOSPHATASE” value [1] was 467.33 u/L. The “ASPARTATE AMINOTRANSFERASE” value [1] was 94 u/L, the “BLOOD UREA NITROGEN” value [1] was 17 mg/dL and the “CARBON DIOXIDE” value [1] was 33 mmol/L. For the same compound, the CHLORIDE [1] was 101 MEQ/L, the CHOLESTEROL [1] was 69.33 mg/dL and the “CREATINE PHOSPHOKINASE” value [1] was 839.67 u/L. For the same compound, the CREATININE [1] was 0.22 mg/dL, the GLUCOSE [1] was 165 mg/dL and the “LACTATE DEHYDROGENASE” value [1] was 138 u/L. The LIPASE [1] was 8.33 u/L, the PHOSPHORUS [1] was 10.83 mg/dL and the POTASSIUM [1] was 5.81 MEQ/L. The SODIUM [1] was 143.17 MEQ/L, the “TOTAL BILIRUBIN” value [1] was 0.2 mg/dL and the “TOTAL PROTEIN” value [1] was 5.87 G/DL. The “URIC ACID” value [1] was 0.9 mg/dL, the “ALANINE AMINOTRANSFERASE” value [2] was 56 u/L and the ALBUMIN [2] was 3.97 G/DL. The “ALKALINE PHOSPHATASE” value [2] was 312.33 u/L, the “ASPARTATE AMINOTRANSFERASE” value [2] was 91.67 u/L and the “BLOOD UREA NITROGEN” value [2] was 16.33 mg/dL. The “CARBON DIOXIDE” value [2] was 28 mmol/L, the CHLORIDE [2] was 101.33 MEQ/L and the CHOLESTEROL [2] was 75.33 mg/dL. For the same compound, the “CREATINE PHOSPHOKINASE” value [2] was 431.33 u/L, the CREATININE [2] was 0.2 mg/dL and the GLUCOSE [2] was 169 mg/dL. For the same compound, the “LACTATE DEHYDROGENASE” value [2] was 240.33 u/L, the LIPASE [2] was 12.67 u/L and the PHOSPHORUS [2] was 11.4 mg/dL. The POTASSIUM [2] was 5.83 MEQ/L, the SODIUM [2] was 141.23 MEQ/L and the “TOTAL BILIRUBIN” value [2] was 0.2 mg/dL. For the same compound, the “TOTAL PROTEIN” value [2] was 5.67 G/DL, the “URIC ACID” value [2] was 1.5 mg/dL and the “ABSOLUTE BASOPHIL” value [3] was 0 CELLS/uL. For the same compound, the “ABSOLUTE EOSINOPHIL” value [3] was 0 CELLS/uL, the “ABSOLUTE LYMPHOCYTE” value [3] was 11354.67 CELLS/uL and the “ABSOLUTE MONOCYTE” value [3] was 87 CELLS/uL. For the same compound, the “ABSOLUTE SEGMENTED NEUTROPHIL” value [3] was 958.33 CELLS/uL, the BASOPHIL [3] was 0% and the EOSINOPHIL [3] was 0%. For the same compound, the “ERYTHROCYTE COUNT” value [3] was 5.2 x10E6/uL, the HEMATOCRIT [3] was 33.13% and the HEMOGLOBIN [3] was 13.43 G/DL. For the same compound, the “LEUKOCYTE COUNT” value [3] was 12.4 x10E3/uL, the LYMPHOCYTE [3] was 91.67% and the “MEAN CORPUSCULAR HEMOGLOBIN” value [3] was 25.8 pg. For the same compound, the “MEAN CORPUSCULAR HEMOGLOBIN CONCENTRATION” value [3] was 40.53 G/DL, the “MEAN CORPUSCULAR VOLUME” value [3] was 63.7 fL and the MONOCYTE [3] was 0.67%. For the same compound, the NEUTROPHIL [3] was 7.67%, the “NUCLEATED RED BLOOD CELLS” value [3] was 0 /100WBC and the “PLATELET COUNT” value [3] was 1167.67 x10E3/uL. The “ABSOLUTE BASOPHIL” value [4] was 0 CELLS/uL, the “ABSOLUTE EOSINOPHIL” value [4] was 146 CELLS/uL and the “ABSOLUTE LYMPHOCYTE” value [4] was 11010.33 CELLS/uL. The “ABSOLUTE MONOCYTE” value [4] was 173 CELLS/uL, the “ABSOLUTE SEGMENTED NEUTROPHIL” value [4] was 1104 CELLS/uL and the BASOPHIL [4] was 0%. The EOSINOPHIL [4] was 1%, the “ERYTHROCYTE COUNT” value [4] was 5.51 x10E6/uL and the HEMATOCRIT [4] was 34.03%. The HEMOGLOBIN [4] was 13.57 G/DL, the “LEUKOCYTE COUNT” value [4] was 12.43 x10E3/uL and the LYMPHOCYTE [4] was 88.67%. The “MEAN CORPUSCULAR HEMOGLOBIN” value [4] was 24.63 pg, the “MEAN CORPUSCULAR HEMOGLOBIN CONCENTRATION” value [4] was 39.87 G/DL and the “MEAN CORPUSCULAR VOLUME” value [4] was 61.77 fL. For the same compound, the MONOCYTE [4] was 1.33%, the NEUTROPHIL [4] was 9% and the “NUCLEATED RED BLOOD CELLS” value [4] was 0 /100WBC. The “PLATELET COUNT” value [4] was 1282.67 x10E3/uL, the “ALANINE AMINOTRANSFERASE” value [3] was 55.67 u/L and the ALBUMIN [3] was 4.07 G/DL. For the same compound, the “ALKALINE PHOSPHATASE” value [3] was 352.67 u/L, the “ASPARTATE AMINOTRANSFERASE” value [3] was 91.67 u/L and the “BLOOD UREA NITROGEN” value [3] was 20.67 mg/dL. The “CARBON DIOXIDE” value [3] was 28 mmol/L, the CHLORIDE [3] was 102.67 MEQ/L and the CHOLESTEROL [3] was 72.67 mg/dL. For the same compound, the “CREATINE PHOSPHOKINASE” value [3] was 402.33 u/L, the CREATININE [3] was 0.22 mg/dL and the GLUCOSE [3] was 169 mg/dL. For the same compound, the “LACTATE DEHYDROGENASE” value [3] was 354.67 u/L, the LIPASE [3] was 10 u/L and the PHOSPHORUS [3] was 11.7 mg/dL. For the same compound, the POTASSIUM [3] was 6.36 MEQ/L, the SODIUM [3] was 144.1 MEQ/L and the “TOTAL BILIRUBIN” value [3] was 0.17 mg/dL. The “TOTAL PROTEIN” value [3] was 5.8 G/DL, the “URIC ACID” value [3] was 1.53 mg/dL and the “ALANINE AMINOTRANSFERASE” value [4] was 66.33 u/L. The ALBUMIN [4] was 4.17 G/DL, the “ALKALINE PHOSPHATASE” value [4] was 366.33 u/L and the “ASPARTATE AMINOTRANSFERASE” value [4] was 97.67 u/L. The “BLOOD UREA NITROGEN” value [4] was 17.33 mg/dL, the “CARBON DIOXIDE” value [4] was 29.33 mmol/L and the CHLORIDE [4] was 101.33 MEQ/L. For the same compound, the CHOLESTEROL [4] was 68.67 mg/dL, the “CREATINE PHOSPHOKINASE” value [4] was 303.67 u/L and the CREATININE [4] was 0.15 mg/dL. For the same compound, the GLUCOSE [4] was 156.33 mg/dL, the “LACTATE DEHYDROGENASE” value [4] was 446 u/L and the LIPASE [4] was 10.67 u/L. It also gave a PHOSPHORUS [4] of 11.53 mg/dL, a POTASSIUM [4] of 5.71 MEQ/L and an SODIUM [4] of 142.9 MEQ/L. For the same compound, the “TOTAL BILIRUBIN” value [4] was 0.2 mg/dL, the “TOTAL PROTEIN” value [4] was 5.73 G/DL and the “URIC ACID” value [4] was 1.33 mg/dL.
